In one series the test system is MC38 cells. Nature of the series: In vivo metastasis assay (tail vein injection, C57Bl/6 mice). On the set-up: species or system mouse. As to conditions: 10 mg/kg every 48 hours, 3 weeks. The procedure: FIG. 24A: MC38 cells were subjected to invasion assays using BioCoat Matrigel transwells in the presence of the indicated concentrations of AP-4-139B. 24 hours later, cells were fixed and stained with Crystal Violet. Shown are representative images taken from 8 random fields of view per well. Scale bar=100 μm. FIG. 24B: Quantification of FIG. 24A *** p<0.001. FIG. 24C: Schematic representation of the metastasis assay. 4×10^5 MC38 cells were injected into the tail vein of 8-10 week old male C57Bl/6 mice. Mice were treated with i.p. injection of 10 mg/kg AP-4-139B every 48 hours. After 3 weeks, the lungs of mice were formalin fixed and H&E stained, and assessed for the presence of metastatic nodules. […] FIG. 24E: Quantification of FIG. 24D. n=5 mice per group. * p<0.05.
For in vivo metastasis assays, 8-10 week old male C57Bl/6 mice were injected with 4×10^5 MC38 cells. […] At the end of the study, mice were euthanized, lungs were harvested and fixed in formalin for analysis of lung tumor nodules by H&E. For anti-tumor vaccination studies, MC38 cells were treated with 10 μM AP-4-139B for 48 h, resulting in approximately 20% cell death (as assessed by Trypan Blue staining). […] Ten days later, mice were challenged on the right flank with 5×10^5 live MC38 cells, and tumor growth and incidence were monitored 3 times per week. […]

The nature of another series: Pharmacokinetics in mice. The series is classed as in vivo. As to conditions: 10 mg/kg. An excerpt:
FIGS. 8A-8E show HSP70 inhibition is effective on mouse CRC cell lines. FIG. 8A: Association of HSPA1A gene expression and survival rate of patients with colorectal adenocarcinoma (COAD). Patient data was gathered from USCS Xena platform (GDC-TCGA COAD; n=435). Log-rank test was used to determine significance. p=0.0004. FIG. 8B: Association of HSPA1A gene expression and stage of COAD (n=440). Wilcoxon rank sum test was used to determine significance. * p<0.05, *** p<0.001. FIG. 8C: Body weights of mice injected with HT-29 tumor xenografts. Weights were measured at the start of the treatment to determine mouse toxicity. n.s. not significant, n=10 mice per group. FIG. 8D: H&E staining of livers and colons of mice injected with HT-29 tumor xenografts. Tissues were collected at the end of the study. FIG. 8E. Pharmacokinetic values of AP-4-139B in the liver, plasma, and brain from three CDI mice treated with 10 mg/kg of compound.

In a further series the test system is MC38 and HT-29 cells. Nature of the series: Extracellular ATP release (CellTiter-Glo). It is filed as cell-based. The procedure:
FIG. 6A: 1×10^6 MC38 cells were injected subcutaneously into the right flank of 6-8-week-old male C57Bl/6 mice. Once tumors reached an approximate volume of 100 mm^3, mice were treated with AP-4-139B (10 mg/kg) every 48 hours. 20 days after the start of treatment, tumors were excised, weighed, minced and digested. Tumor-infiltrating and splenic conventional CD4 (cCD4) (Live CD45^+ DUMP^− CD3^+CD4^+Foxp3^−), Tregs (Live CD45^+ DUMP^− CD3^+CD4^+Foxp3^+), CD8 (Live CD45^+ DUMP^− CD3^+CD8^+) T-cells, and Dendritic Cells (Live CD45^+ DUMP^− CD3^−CD11c^+MHCII^+) numbers were assessed by flow cytometry. * p<0.05, n.s. not significant. n=8 mice per group. FIG. 6B: MC38 and HT-29 cells were treated with the indicated concentrations of AP-4-139B for either 8 or 24 hours; media was collected and subjected to WB for HMGB1. Data shown are representative of three technical replicates. FIG. 6C: MC38 and HT-29 cells were treated with the indicated concentrations of AP-4-139B for three hours and then assayed for extracellular ATP release. Each graphical representation indicates the mean±the standard deviation of three independent experiments relative to control (DMSO-treated) cells.
FIG. 6D: MC38 cells were treated with 5 μM AP-4-139B for 24 hours and subjected to flow cytometry, using Alexa488-tagged calreticulin antibody. *** p<0.001, n=4 biological replicates performed in duplicate. FIG. 6E: MC38 cells were treated with increasing concentrations of AP-4-139B, G-TPP, 17-AAG or Metformin for 3 hours and then assayed for extracellular ATP release. Three independent cultures were assayed for each treatment, and DMSO-treated cells were used as internal controls. Error bars represent standard deviation (SD).
The XF Cell Mito Stress Test was performed. Briefly, HT-29 (10,000 cells/well), IMR90 (15,000 cells/well), and 1205Lu (15,000 cells/well) were plated in Seahorse 96-well cell culture microplates, treated with the respective inhibitors for 24 hours, and subjected to the Seahorse XF Cell Mito Stress Test, according to the manufacturer's protocol (Agilent Technologies). For extracellular HMGB1 release, 1×10^6 MC38 cells were plated in 10-cm dishes. The next day, cells were treated with the indicated concentrations of AP-4-139B for 8 or 24 hours in serum-free media. Media was collected and spun down at 2,000 rpm for 5 minutes to pellet any remaining cells or debris. Media was then transferred to Amicon Ultra 15, 10K tubes and spun down at 4,000 rpm for 45 minutes, according to the manufacturer's protocol. […] For extracellular ATP release, ATP was measured using the CellTiter-Glo Kit (Promega catalog #G7570). […] 10 μl of CellTiter-Glo Reaction Mix was then mixed with 10 μl of culture media; the luminescence signal was detected using a luminometer.
(In general: Cellular ATP, detected with luciferase, serves as a proxy for viable cell number.)

Usually half-life stands for the time in which the quantity being followed falls by half. In the case of `c1ccc(-c2cn3nc(CCCCCC[P+](c4ccccc4)(c4ccccc4)c4ccccc4)sc3n2)cc1` [AP-4-139B, Triphenyl(6-(6-phenylimidazo[2,1-b][1,3,4]thiadiazol-2-yl)hexyl)phosphonium bromide], in the series on MC38 cells, the “number of tumor nodules in the lung” value is reported as “markedly decreased number of tumor nodules in the lung”. Also, in “Pharmacokinetics in mice”, the brain penetrance result is reported as “modest brain penetrance” and the half-life in plasma result is on record as “> five”. Further, the half-life in “Pharmacokinetics in mice” (CDI, mouse, plasma) was over 5 h. Besides, the ATP release entry with MC38 and HT-29 cells (MC38 and HT-29, three hours) was “ATP release”. Further, in the series on MC38 and HT-29 cells (MC38 cells, increasing concentrations, 3 hours), the “ATP release, comparison of compounds” value is “most significant release of ATP”.

(Values after patent US12616753B2, “HSP70 inhibitors and methods of using same” (THE WISTAR INSTITUTE, priority 2020, dated 2026).)
